Results reported in publication PMC5225203, “Multiparameter toxicity assessment of novel DOPO-derived organophosphorus flame retardants” (Archives of Toxicology, 2016).

Key:
[1] = test system: differentiated LUHMES cells; format: cell-based, human; settings: at high concentrations, correlated with neurite degeneration
Protocol: Suppl. Fig. 10. Migration of mitochondria in neurites. Mitochondrial migration was detected in fully differentiated (day 6 of differentiation, DoD6) mixed LUHMES cultures consisting of 3% eGFP/mito-tRFP-overexpressing LUHMES in 97% unlabeled LUHMES in order to allow tracking of mitochondria in single neurites in an environment of normal LUHMES cell density (Schildknecht et al. 2013, ALTEX 30(4):427-444). Single cell time lapse imaging was performed for a period of 90 s in intervals of 3 s with a Zeiss LSM 780 inverted fluorescence microscope YOKOGAWA CSU-XI spinning disk system using an EVOLVE camera (Carl Zeiss Group, Oberkochen, Germany) equipped with a 5% CO2 /37°C controlled chamber and a 40 x 1.3 NA oil objective. For image analysis, kymographs (graphical representation of spatial position over time) based on the data obtained from single cell time lapse experiments were created using ImageJ Software (NIH, Bethesda, USA). The neurite was manually defined by the segmented line tool. To calculate mitochondrial velocity, diagonal lines were drawn for each moving mitochondrium in the kymograph and analysed by calculating the slope with the macro-plugin Kymo Line ROI, generated by Felix Schöneberger, Bioimaging Center (BIC), University of Konstanz, Germany.
(1 picture or pasted object on this page, not shown here)

[2] = test system: human alveolar epithelial cell line A549; experiment: Acute cytotoxicity, MTS reduction, A549; format: cell-based; settings: A549, 48 h; for concentration producing acute toxicity: MTS; for cell damage (viability, MTS reduction): concentrations as high as 400 µM
Protocol: The human alveolar epithelial cell line A549 (ATCC: CCL-185) was grown in Roswell Park Memorial Institute (RPMI-1640) medium (Sigma-Aldrich) supplemented with 10 % FCS (Lonza), 2 mM L-glutamine (Gibco), 50 µg/mL penicillin (Gibco), 50 µg/mL streptomycin (Gibco), and 100 µg/mL neomycin (Gibco) at 37 °C in a humidified atmosphere containing 5 % CO2 (hereafter referred to as complete cell culture medium and standard growth conditions, respectively). Cells were subcultured at approximately 80–90 % confluency using 0.5 % trypsin–EDTA (Sigma-Aldrich). For viability assessment, 1.5 × 10^4 cells per well were seeded in 200 µL complete cell culture medium in a 96-well plate and grown overnight under standard growth conditions, after which the cells were treated for 48 h with 200 µL standard growth medium per well containing increasing concentrations of the flame retardants or positive control agent CdSO4. CellTiter96® AQueous One Solution (Promega) containing MTS (3-(4,5-dimethylthiazol-2-yl)-5-(3-carboxymethoxy-phenyl)-2-(4-sulfophenyl)-2H) as a water-soluble tetrazolium compound was used according to the manufacturer’s protocol. Absorption was detected at 490 nm.

[3] = test system: ARE-dependent luciferase expression in KeratinoSens cells; experiment: KeratinoSens skin sensitization assay; format: cell-based; settings: for cell viability (PrestoBlue) in KeratinoSens cells / ARE-dependent luciferase expression: 48 h; for skin sensitizer classification / ARE-dependent luciferase expression: KeratinoSens
Protocol: Generation of the stable KeratinoSens™ cell line was previously described in detail (Emter et al. [2010]). KeratinoSens™ cells were maintained in DMEM containing glutamax (Gibco/Invitrogen), 9 % FCS, and 0.5 mg/mL G418. For the experiments, KeratinoSens™ cells were seeded onto 96-well plates at a density of 10,000 cells per well in 125 µL medium without G418. After 24 h, the medium was replaced with 200 µL DMEM containing 1 % FCS and the test compounds. After a 2-day incubation period at 37 °C in an atmosphere containing 5 % CO2, the cells were washed once with PBS and a resazurin reduction assay (PrestoBlue®) was carried out in order to compare the viability of the differently treated groups. Fluorescence intensity was measured at 550 nmex and 590 nmem. After another washing step with PBS, cell lysis was performed using 20 µL/well passive lysis buffer (Promega) for 20 min at room temperature. Luciferase activity was measured by applying 50 µL luciferase substrate automatically to each well and detecting the resulting luminescence. Compounds were considered as skin sensitizers when a statistically significant induction of luciferase activity above a defined threshold of ≥1.5 in the absence of impaired cell viability was observed (Emter et al. [2010]; Natsch et al. [2011]).

human neural crest cells = experiment: Neural crest cell (NCC) migration assay; format: cell-based; settings: for cell migration / cell viability / concentration range in which migration was far more affected than cell viability: NCC, 24 h
Protocol: Human embryogenic stem cells (H9 hESC line; Wisconsin International Stem Cell Bank, Madison, WI, USA) were plated on a confluent layer of mitomycin C-treated murine bone marrow-derived stromal MS5 cells and differentiated as previously described (Lee et al. [2010]; Zimmer et al. [2012]). After 21 days, rosettes were picked and plated onto poly-L-ornithine/laminin/fibronectin-coated plates in N2 medium. After 7 days, cells were FACS-sorted for positive expression of the neural crest marker human natural killer-1 (HNK-1) and expanded in N2 medium supplemented with epidermal growth factor (EGF, 20 ng/mL) and fibroblast growth factor (FGF2, 20 ng/mL). For expansion, the cells were passaged every 6 days using accutase (PAA, Pasching, Austria) to detach the cells. After 30 days of expansion, the cells were cryopreserved in 90 % fetal bovine serum, 10 % DMSO. For the analysis of neural crest cell migration, silicone stoppers (Platypus Technologies, Madison, WI, USA) were inserted in a 96-well plate coated with poly-L-ornithine/laminin/fibronectin. Freshly thawed NCCs were seeded at a density of 100,000 cells/cm^2 in N2 medium containing EGF and FGF2 and allowed to attach for 1 day. Stoppers were removed, and the cells were allowed to migrate into the center of the well. Compounds tested in this study were diluted from a 10 mM stock in DMSO and were applied for 24 h. For single cell detection, cells were stained with H-33342 (1 µg/mL) and calcein-AM (0.5 µM) and imaged using a high content imaging microscope (Cellomics ArrayScanVTI, Thermo Fischer). Viability was assessed by counting the number of H-33342 and calcein double-positive cells outside the migration zone. Migration was detected by acquisition of the number of H-33342 and calcein double-positive cells in the migration area.

[4] = concentrations as high as 100 µM

Row | Compound | mitochondrial velocity [1] | concentration producing acute toxicity [2] | cell viability (PrestoBlue) in KeratinoSens cells [3] | skin sensitizer classification [3] | ARE-dependent luciferase expression [3] | cell migration (human neural crest cells) | cell viability (human neural crest cells) | concentration range in which migration was far more affected than cell viability (human neural crest cells) | cell damage (viability, MTS reduction) [2] | increase in ARE-dependent luciferase expression ([3]; at a concentration of 3 µM, in the absence of significant cell death) | viability of human NCCs (human neural crest cells; [4]) | NCC migration and NCC viability (human neural crest cells; [4])
1 | O=P1(NCCOP2(=O)Oc3ccccc3-c3ccccc32)Oc2ccccc2-c2ccccc21 (stereo not drawn) [ETA-DOPO, 6-(2-((6-oxido-6H-dibenzo[c,e][1,2]oxaphosphinin-6-yl)amino)ethoxy)-6H-dibenzo[c,e][1,2]oxaphosphinine 6-oxide] | influenced mitochondrial velocity | > 20 µM | decline in cell viability | No specific effects | increase in ARE-dependent luciferase expression | concentration-dependent declines | concentration-dependent declines | 30 to 60 µM |  |  |  | 
2 | Brc1ccc(Oc2cc(Br)c(Br)cc2Br)c(Br)c1 [PBDE-99, reference compound] | influenced mitochondrial velocity |  | absence of significant cell death |  |  | moderately, but significantly, inhibited | did not reduce cell viability |  | no signs of cell damage | ca. twofold | did not reduce the viability | 
3 | O=[PH]1Oc2ccccc2-c2ccccc21 (stereo not drawn) [DOPO, 9,10-dihydro-9-oxa-10-phosphaphenanthrene-10-oxide] |  |  |  | No specific effects | neither induced luciferase activity | inhibited neither cell migration |  |  | no signs of cell damage |  |  | influenced neither NCC migration nor NCC viability
4 | O=P1(OCCOP2(=O)Oc3ccccc3-c3ccccc32)Oc2ccccc2-c2ccccc21 (stereo not drawn) [EG-DOPO, 6,6′-(ethane-1,2-diylbis(oxy))bis(6H-dibenzo[c,e][1,2]oxaphosphinine-6-oxide)] | influenced mitochondrial velocity | > 20 µM | decline in cell viability | No specific effects | increase in ARE-dependent luciferase expression | concentration-dependent declines | concentration-dependent declines | 30 to 60 µM |  |  |  | 
5 | O=P1(NCCNP2(=O)Oc3ccccc3-c3ccccc32)Oc2ccccc2-c2ccccc21 (stereo not drawn) [EDA-DOPO, 6,6′-(ethane-1,2-diylbis(azanediyl))bis(6H-dibenzo[c,e][1,2]oxaphosphinine-6-oxide)] |  |  |  | No specific effects | neither induced luciferase activity | inhibited neither cell migration |  |  | no signs of cell damage |  |  | influenced neither NCC migration nor NCC viability
